Values belong to the compound of their own block, whether it stands above or below them.
Experiments:
[1] = Excipient compatibility study with crystalline Form A: HPLC assay of % drug; assay type: physicochemical
Description: Physical mixtures of crystalline Form A and fourteen processing excipients, gelatin and hydroxypropyl methylcellulose capsules, and drug substance alone were prepared. […] Each sample group was stored under the following conditions: 5° C. (for time=0 testing), 40° C./75% RH (relative humidity) one month, and 40° C./75% RH three months. Bulk drug substance was weighed and added to a sample vial. De-ionized water was then measured (0.015 mL) and added to the vials designated as wet samples. The wet samples were then mixed using a vortex mixer for approximately 15 seconds to incorporate the water and the drug. Excipient was then weighed and added to appropriate vials. The contents of each vial were mixed for approximately 15 seconds using a vortex mixer to produce a uniform mixture of (wet or dry) drug/excipient. To prepare the capsule samples, the bulk drug substance was weighed directly into the capsule. The capsules were then placed into appropriate vials. Fifteen microliters of de-ionized water was added to the inside of capsules designated as wet samples. All samples were stored in 20 mL Type I clear glass scintillation vials with foil-lined screw-type vial caps were tightened by hand. Samples were stored in controlled room temperature/humidity until ready for testing. Other sample vials were stored at 40° C./75% RH unprotected from light and tested at one and three months. […] The vials were rinsed several times with diluent and added to the volumetric flasks. The contents of the capsules were transferred to 50 mL volumetric flasks and the capsule shells were also rinsed with diluent. Diluent was added to the volumetric flasks and they were sonicated for 10 minutes, then diluted to volume with diluent. The solutions were further diluted 5.0 mL into a 50 mL volumetric flask and brought to volume with diluent. These diluted solutions were used for the assay. All solutions were filtered through 0.45 micron PTFE filters, with the first 1-2 mL discarded before filling the HPLC autosampler vials. The diluted sample solutions were assayed against a reference standard of drug product prepared in a similar manner.

[2] = Excipient compatibility study with crystalline Form A: Total Related Substance (TRS); assay type: physicochemical
Description: Binary mixtures of drug with each excipient were prepared by physically mixing 50.0 mg (±2.0 mg) of drug substance with the specified proportion of each excipient. The stability of the drug in the presence of each excipient was studied in dry samples as well as with 30% w/w (relative to bulk drug weight) de-ionized water. Each sample group was stored under the following conditions: 5° C. (for time=0 testing), 40° C./75% RH (relative humidity) one month, and 40° C./75% RH three months.

[3] = In vivo human and non-human animal studies
[4] = Solubility in water of the tartrate salt; assay type: physicochemical; details: tartrate salt versus compound of formula I
Description: The tartrate salt of pimavanserin may be prepared as an integrated part of the process for synthesizing the compound as described above by using tartaric acid as the salt forming acid. Alternatively, the tartrate salt may be formed by reaction of the isolated compound of formula I with tartaric acid.

[5] = wet conditions (30% w/w water added)

% Drug One Month 40° C./75% RH ([1]; dry conditions): 94.9%
% Drug Three Months 40° C./75% RH ([1]; dry conditions): 95.9%
% Drug (time = 0) ([1]; dry conditions): 98.4%
% Drug One Month 40° C./75% RH [1, 5]: 91.2%
% Drug Three Months 40° C./75% RH [1, 5]: 93.5%
% Drug (time = 0) [1, 5]: 98.5%
Total related substance, 1 month - Dry ([2]; dry, 1 month 40° C./75% RH): 1.38
Total related substance, 3 month - Dry ([2]; dry, 3 month 40° C./75% RH): 2.72
Total related substance, Time 0 - Dry ([2]; dry, time 0): 0.35
Total related substance, 1 month - Wet ([2]; wet (30% w/w water), 1 month 40° C./75% RH): 1.67
Total related substance, 3 month - Wet ([2]; wet (30% w/w water), 3 month 40° C./75% RH): 3.39
Total related substance, Time 0 - Wet ([2]; wet (30% w/w water), time 0): 0.36
Compound: CC(C)COc1ccc(CNC(=O)N(Cc2ccc(F)cc2)C2CCN(C)CC2)cc1.CC(C)COc1ccc(CNC(=O)N(Cc2ccc(F)cc2)C2CCN(C)CC2)cc1.O=C(O)C(O)C(O)C(=O)O [#17 Drug Substance]

Compound: CC(C)COc1ccc(CNC(=O)N(Cc2ccc(F)cc2)C2CCN(C)CC2)cc1 [pimavanserin, N-(1-methylpiperidin-4-yl)-N-(4-fluorophenylmethyl)-N′-(4-(2-methylpropyloxy)phenylmethyl)carbamide]
in vivo activity [3]: anti-psychotic, anti-dyskinesia, and anti-insomnia activity

Compound: tartrate salt of N-(4-fluorobenzyl)-N-(1-methylpiperidin-4-yl)-N′-(4-(2-methylpropyloxy)phenylmethyl)carbamide [pimavanserin tartrate]
solubility in water [4]: improved solubility in water

Source: US20070264330A1 (priority 2006, published 2007)
